The results in this text go back to publication PMC11436104 (Toxins, 2024).

Test [1] concerns TUBA1A. In words: Gene expression by quantitative real-time PCR in NHA. The class given is cell-based, human. The procedure:
(§1) Cells were seeded onto 6-well plates, left to attach for 16 h, and treated with each non-hCCP separately (0.1–10 µM) and the hepatotoxic MC-LR (0.01–1 µM) for 24 h at 37 °C in the CO2 incubator. The total RNA from the cells (0.5–1.0 × 10^6 cells) was isolated using the TRIzol reagent (Invitrogen), and the cDNA was synthesized using 1 μg total RNA with cDNA high-capacity archive kits (Applied Biosystems, Foster City, CA, USA), according to the manufacturer’s protocol.
(§2) The expression levels of TUBA1A, ACTB, NES, and GFAP were quantified using quantitative real-time PCR (ABI 7900 HT Sequence Detection System; Applied Biosystems). TaqMan Universal PCR Master Mix and the following TaqMan Gene Expression Assays were used: TUBA1A: tubulin, alpha 1a, Hs00362387_m1; ACTB: actin, beta, Hs99999903_m1; NES, nestin, Hs00707120_s1; and GFAP, glial fibrillary acidic protein, and Hs00157674_m1 (all from Applied Biosystems). Amplification of a glyceraldehyde 3-phosphate dehydrogenase probe GAPDH (Human Endogenous Controls, Cat. # 4310884E; Applied Biosystems) was performed as an internal control. The conditions for the quantitative real-time PCR were as follows: 50 °C for 2 min, 95 °C for 10 min, 40 cycles of 95 °C for 15 s, and 60 °C for 1 min.
(§3) The data obtained from the TaqMan Gene Expression Assays were analyzed using the ΔΔCt algorithm. Two replicates per concentration and three independent experiments were performed. The statistical significance between the controls and the treated groups was determined using two-tailed Student’s t-tests, where p < 0.05 was statistically significant. In addition, the relative expression was normalized to the housekeeping gene GAPDH (relative quantification), with at least three sample concentrations used for each gene in both untreated cell lines.
(In qPCR the cycle at which signal appears reflects the starting amount.)

Test [2] has as its system NES. The description is as above. The class given is cell-based, human. The procedure:
as §1, §2, §3

Test [3] relates to GFAP. The description is as above. Format: cell-based, human. How it is done:
as §1, §2, §3

For test [4], the system named is ACTB. Described as above. The class given is cell-based, human. The procedure: as §1, §2, §3
Test [5] concerns the target T1, Ser/Thr protein phosphatase type-2A (PP2A) (Bos taurus, UniProt P67774).
T1 construct: PP2A; from bovine kidney; purchased Sigma P1868; host or cells: bovine kidney (tissue-purified)
As to the kind of experiment: Colorimetric protein phosphatase inhibition assay, p-nitrophenyl phosphate substrate. The class given is biochemical, bovine. The procedure: The inhibition of Ser/Thr protein phosphatases by the CCPs was measured using the colorimetric inhibition assay described by An and Carmichael and Gkelis et al., with some modifications. […] Enzymes, PP1 and PP2A, were diluted in reaction buffer #1 (50 mM Tris-HCl, 1.0 g/L bovine serum albumin, 1.0 mM MnCl2, 2.0 mM dithiothreitol, pH 7.4), and p-nitrophenyl phosphate was prepared in substrate buffer (0.1 M glycine, pH 10.4, 1 mM MgCl2, 1 mM ZnCl2). The assay was performed by the addition of each CCP (as a potential inhibitor; final concentrations, 0.1, 1, 10, and 100 µM) to the enzyme solution (i.e., PP1 and PP2A; final concentrations, 1 U/well and 0.01 U/well, respectively, where 1 U hydrolyzes 1 nmole of substrate per minute at pH 7.4 at 30 °C). After a few seconds of gentle shaking, the microplate was kept at room temperature for 5 min, followed by the addition of reaction buffer #2 (50 mM Tris-HCl, 0.5 g/L bovine serum albumin, 0.2 mM MnCl2, 20 mM MgCl2, and pH 8.1) for PP1, or reaction buffer #1 for PP2A. The reactions were started by the addition of p-nitrophenyl phosphate (final concentrations, 15 mM for PP1 and 10 mM for PP2A) and were carried out for 120 min at 37 °C. The hydrolysis of p-nitrophenyl phosphate to […] was recorded at 405 nm using a microplate reader (Tecan, Austria). The inhibition percentages (X) were calculated from the absorbances of the samples after incubation for 30 min, as according to Equation (1):X (%) = (APP − AS)/APP × 100,(1) where APP is the absorbance of the control sample (i.e., enzyme only), and AS is the absorbance of the test sample (i.e., enzyme with potential inhibitor). […] All measurements were repeated a minimum of three independent times, with five technical replicates per experiment. IC50 values are expressed as means ± SD.

Where [6] appears, read: NHA, 0.1 µM CCP, 24 h, relative to non-treated control.
Setting [7] is: NHA, 1 µM CCP, 24 h, relative to non-treated control.
Where [8] appears, read: NHA, 10 µM CCP, 24 h, relative to non-treated control.
Setting [9] is: means ± SD, p-nitrophenyl phosphate 10 mM.

Values joined by “and” are separate entries in the source; they are usually repeats but may differ in a detail not shown here. Equal values may be shown once. Read-outs that look alike come from different tables or passages of the source. *1 amine or outer side, *2 acyl side, *3 side chain or, on linkers, in order; H or OH if unused. Where a SMILES comes first, the peptide text is derived from it. Bridges are numbered along the chain shown (N, C = ends). [ ]: non-standard residue; d: D form. Adda = CO[C@@H](Cc1ccccc1)[C@@H](C)/C=C(C)/C=C/[C@H](N[*:1])[C@H](C)C(=O)[*:2]; dAsp(3S-Me) = C[C@H](C(=O)[*:3])[C@@H](N[*:1])C(=O)[*:2]; d(γGlu) = O=C(O)[C@@H](CCC(=O)[*:2])N[*:1]; hTyr = N[C@@H](CCc1ccc(O)cc1)C(=O)O; NMeA = CN[C@@H](C)C(=O)O; NMeDha = C=C(NC)C(=O)O; CO = O=C([*:1])[*:2]

T1 sequence (P67774 whole entry): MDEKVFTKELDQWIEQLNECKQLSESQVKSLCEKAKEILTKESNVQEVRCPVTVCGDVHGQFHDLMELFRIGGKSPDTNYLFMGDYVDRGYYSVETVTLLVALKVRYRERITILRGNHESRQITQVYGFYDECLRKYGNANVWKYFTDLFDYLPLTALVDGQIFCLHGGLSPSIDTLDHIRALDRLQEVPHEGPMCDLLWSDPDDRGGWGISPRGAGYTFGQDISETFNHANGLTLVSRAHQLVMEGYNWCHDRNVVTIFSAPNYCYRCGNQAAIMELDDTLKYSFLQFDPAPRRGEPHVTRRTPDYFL

Broadly, the IC50 is the point on the concentration scale where inhibition reaches its midpoint. A high value points to a need for much substance. With `CC[C@H](C)[C@@H]1NC(=O)[C@H](Cc2ccc(OC)cc2)N(C)C(=O)[C@H]([C@@H](C)O)N2C(=O)[C@H](CC[C@H]2O)NC(=O)[C@H](CC(C)C)NC(=O)[C@@H](NC(=O)[C@H](CCC(N)=O)NC(=O)[C@H](CCc2ccc(O)cc2)NC(=O)[C@@H](O)CO)[C@@H](C)OC1=O`, the “Changes in gene expression of TUBA1A” value in test [1] (setting [6]) turned out to be 0.940 ± 0.162; in test [1] (setting [7]) it was 0.824 ± 0.128; in test [1] (setting [8]), 1.000 ± 0.141. Besides, the “Changes in gene expression of NES” value in test [2] (setting [6]) is reported as 1.262 ± 0.077; in test [2] (setting [7]) it was 1.203 ± 0.196; in test [2] (setting [8]), 1.370 ± 0.208. Also, the “Changes in gene expression of GFAP” value in test [3] (setting [6]) was determined as 1.051 ± 0.351; in test [3] (setting [7]), 0.947 ± 0.101; in test [3] (setting [8]), 1.119 ± 0.240. Besides, the “Changes in gene expression of ACTB” value in test [4] (setting [6]) is recorded as 0.949 ± 0.140; in test [4] (setting [7]), 0.988 ± 0.147; in test [4] (setting [8]) it was 1.162 ± 0.251. For the same compound, the IC50 in test [5] (setting [9]) came out at 18.2 ± 15.7 µM.
For the compound `C=C1C(=O)N[C@H](C)C(=O)N[C@@H](CC(C)C)C(=O)N[C@@H](C(=O)O)[C@H](C)C(=O)N[C@@H](CCCNC(=N)N)C(=O)N[C@@H](/C=C/C(C)=C/[C@H](C)[C@H](Cc2ccccc2)OC)[C@H](C)C(=O)N[C@@H](C(=O)O)CCC(=O)N1C` [MC-LR, Microcystin-LR, reference compound] (R[Adda][d(γGlu)][NMeDha][dA]L[dAsp(3S-Me)]-OH; lactam N-7), in test [1], the “Changes in gene expression of TUBA1A” value was 0.957 ± 0.046 and 0.941 ± 0.025. Also, in test [2], the “Changes in gene expression of NES” value was 0.917 ± 0.067 and 1.266 ± 0.250. In test [3], the “Changes in gene expression of GFAP” value was 1.395 ± 0.312 and 1.453 ± 0.279. Moreover, the “Changes in gene expression of ACTB” value in test [4] is 1.866 ± 0.844 and 1.071 ± 0.437. In addition, in test [5], the IC50 came out at 4.8e-05 ± 1e-05 µM.
As to `CC(C)[C@@H]1NC(=O)[C@H](NC(=O)N[C@@H](CCCNC(=N)N)C(=O)O)CCCCNC(=O)[C@H](Cc2ccccc2)NC(=O)[C@H](C)N(C)C(=O)[C@H](CCc2ccc(O)cc2)NC1=O` [anabaenopeptin B] ({Arg-CO}-[dK]V[hTyr][NMeA]F; lactam 1-C), the “Changes in gene expression of TUBA1A” value in test [1] (setting [6]) was found to be 1.082 ± 0.219; in test [1] (setting [7]) it was 0.807 ± 0.100; in test [1] (setting [8]) it was 0.895 ± 0.119. Besides, the “Changes in gene expression of NES” value in test [2] (setting [6]) is reported as 1.361 ± 0.291; in test [2] (setting [7]), 1.221 ± 0.338; in test [2] (setting [8]), 1.388 ± 0.313. Moreover, the entries for the “Changes in gene expression of GFAP” value in test [3] (setting [6]), in test [3] (setting [7]) and in test [3] (setting [8]) were 1.053 ± 0.124, 1.434 ± 0.180 and 0.918 ± 0.204, respectively. Further, the figures for the “Changes in gene expression of ACTB” value in test [4] (setting [6]), in test [4] (setting [7]) and in test [4] (setting [8]) were 1.175 ± 0.386, 0.935 ± 0.157 and 0.934 ± 0.166, respectively. The compound further returned a 50% inhibitory concentration (IC50) in test [5] (setting [9]) of 12.3 ± 6.1 µM.
Consider `CC[C@H](C)[C@@H]1NC(=O)[C@H](NC(=O)N[C@@H](CCCNC(=N)N)C(=O)O)CCCCNC(=O)[C@H](Cc2ccccc2)NC(=O)[C@H](C)N(C)C(=O)[C@H](CCc2ccc(O)cc2)NC1=O` [anabaenopeptin F] ({Arg-CO}-[dK]I[hTyr][NMeA]F; lactam 1-C), for which the “Changes in gene expression of TUBA1A” value in test [1] (setting [6]) turned out to be 0.941 ± 0.186; in test [1] (setting [7]) it was 1.144 ± 0.291; in test [1] (setting [8]), 0.826 ± 0.036. Moreover, the “Changes in gene expression of NES” value in test [2] (setting [6]) worked out at 1.345 ± 0.205; in test [2] (setting [7]), 1.449 ± 0.171; in test [2] (setting [8]), 1.381 ± 0.173. In addition, the “Changes in gene expression of GFAP” value stood at 1.326 ± 0.507 in test [3] (setting [6]), 0.846 ± 0.211 in test [3] (setting [7]) and 1.167 ± 0.250 in test [3] (setting [8]). Further, the “Changes in gene expression of ACTB” value is recorded as 0.824 ± 0.227 in test [4] (setting [6]), 1.121 ± 0.167 in test [4] (setting [7]) and 0.890 ± 0.184 in test [4] (setting [8]). Also, half-maximal inhibition in test [5] (setting [9]) (IC50) required 1 ± 0.2 µM.
